Each structure is given as a SMILES string.

34 compounds from patent publication US10961238B2, “Modulators of hedgehog (Hh) signaling pathway” (E-THERAPEUTICS PLC, priority 2016, dated 2021) can be followed below.

For the assay, the system named is C3H10T1/2 cells. Nature of the assay: C3H assay: differentiation of C3H10T1/2 cells by mSHH, measurement of alkaline phosphatase. The assay is classed as cell-based, mouse. The following applies: Mus musculus, C3H 10T1/2; C3H10T1/2 cells stimulated with mSHH for 72 hours; alkaline phosphatase activity; read-out: IC50 Ranges.
Regarding `O=S(=O)(C1CN(c2ccncc2)C1)N1CCC(c2c[nH]c3ncccc23)CC1` [Compound 71, 3-[1-(1-pyridin-4-ylazetidin-3-yl)-sulfonylpiper-idin-4-yl]-1H-pyrrolo[2,3-b]pyridine], the IC50 (commonly the concentration that inhibits the measured activity by half) is 1000 to 10000 nM.
Regarding `CC(C)C(CO)NC(=O)N1CC(S(=O)(=O)N2CCC(c3ccncc3)CC2)C1` (stereo not shown) [Compound 24, 3-(4-pyridin-4-ylpiperidin-1-yl)sulfonyl-N-[1-hydroxy-3-methylbutan-2-yl]azetidine-1-carboxamide], the concentration for half-maximal inhibition (IC50) fell in the range of 100 to 1000 nM.
As for `Cc1ccc(F)cc1NC(=O)N1CC(S(=O)(=O)N2CCC(c3coc4cccnc34)CC2)C1` [Compound 365, N-(5-fluoro-2-methylphenyl)-3-(4-furo[3,2-b]pyridin-3-ylpiperidin-1-yl)sulfonylaze-tidine-1-carboxamide], the IC50 lay within 10 to 100 nM.
As to `CC(C)(C)COC(=O)N1CC(S(=O)(=O)N2CCC(c3c[nH]c4ncccc34)CC2)C1` [Compound 66, 2,2-dimethylpropyl 3-[4-(1H-pyrrolo[2,3-b]pyridin-3-yl)piperidin-1-yl]sulfonylaze-tidine-1-carboxylate], the half-maximal inhibitory concentration (IC50) was 10 to 100 nM.
Then `O=C(OCC1CC1)N1CC(S(=O)(=O)N2CCC(c3c[nH]c4ncccc34)CC2)C1` [Compound 204, cyclopropylmethyl 3-[4-(1H-pyrrolo[2,3-b]pyridin-3-yl)piperidin-1-yl]sulfonylaze-tidine-1-carboxylate], with 10 to 100 nM; and `O=C(OC1CCCCC1)N1CC(S(=O)(=O)N2CCC(c3coc4cccnc34)CC2)C1` [Compound 141, Cyclohexyl 3-[(4-furo[3,2-b]pyridin-3-yl-1-piperidyl)sulfonyl]azetidine-1-carboxylate], with 10 to 100 nM.
As for `O=C(NCCS(=O)(=O)N1CCC(c2ccncc2)CC1)OC1CCCCC1` [Compound 291, cyclohexyl N-[2-(4-pyridin-4-ylpiperidin-1-yl)sulfonylethyl] carbamate], the figure is 1000 to 10000 nM; as for `O=S(=O)(C1CN(c2nc3ccccc3o2)C1)N1CCC(c2c[nH]c3ncccc23)CC1` [Compound 338, 2-[3-[4-(1H-pyrrolo[2,3-b]pyridin-3-yl)piperidin-1-yl]sulfonylaze-tidin-1-yl]-1,3-benzoxazole], 10 to 100 nM.
Regarding `CC1(CN2CC(S(=O)(=O)N3CCC(c4c[nH]c5ncccc45)CC3)C2)COC1` [Compound 159, 3-[1-[1-[(3-methyloxetan-3-yl)methyl]azetidin-3-yl]-sulfonylpiper-idin-4-yl]-1H-pyrrolo[2,3-b]pyridine], the concentration for half-maximal inhibition (IC50) lay within 1000 to 10000 nM.
As for `O=C(NC1CCC1)N1CCC(S(=O)(=O)N2CCC(c3ccncc3)CC2)CC1` [Compound 104, N-cyclobutyl-4-(4-pyridin-4-ylpiperidin-1-yl)sulfonylpiper-idine-1-carboxamide], the 50% inhibitory concentration (IC50) lay within 1000 to 10000 nM.
With `CC(C)(C)OC(=O)N1CC(S(=O)(=O)N2CCC(c3ccncc3)CC2)C1` [Compound 22, tert-butyl 3-(4-pyridin-4-ylpiperidin-1-yl)sulfonylaze-tidine-1-carboxylate], the IC50 lay within 100 to 1000 nM.
As for `Cc1ccccc1NC(=O)N1CC(S(=O)(=O)N2CCC(c3c[nH]c4ncccc34)CC2)C1` [Compound 364, N-(2-methylphenyl)-3-[4-(1H-pyrrolo[2,3-b]pyridin-3-yl)piperidin-1-yl]sulfonylaze-tidine-1-carboxamide], the figure is 10 to 100 nM; as for `CC(C)(C)C(=O)CN1CC(S(=O)(=O)N2CCC(c3ccc(F)cc3)CC2)C1` [Compound 375, 1-[3-[4-(4-fluorophenyl)piperidin-1-yl]sulfonylaze-tidin-1-yl]-3,3-dimethylbutan-2-one], 100 to 1000 nM; as for `CC(C)(C)OC(=O)N1CCN(S(=O)(=O)N2CC(S(=O)(=O)N3CCC(c4c[nH]c5ncccc45)CC3)C2)CC1` [Compound 172, tert-butyl 4-[3-[4-(1H-pyrrolo[2,3-b]pyridin-3-yl)piperidin-1-yl]sulfonylaze-tidin-1-yl] sulfonylpiper-azine-1-carboxylate], 10 to 100 nM.
On to `NC(=O)c1coc(N2CC(S(=O)(=O)N3CCC(c4ccncc4)CC3)C2)n1` [Compound 261, 2-[3-[[4-(4-pyridyl)-1-piperidyl]sulfonyl]azetidin-1-yl]oxazole-4-carboxamide], for which the concentration for half-maximal inhibition (IC50) fell in the range of 1000 to 10000 nM.
On to `CN(C)C(=O)N1CC(S(=O)(=O)N2CCC(c3c[nH]c4ncccc34)CC2)C1` [Compound 167, N,N-dimethyl-3-[4-(1H-pyrrolo[2,3-b]pyridin-3-yl)piperidin-1-yl]sulfonylaze-tidine-1-carboxamide], for which the IC50 fell in the range of 1000 to 10000 nM.
As for `O=C(Oc1ccccc1O)N1CC(S(=O)(=O)N2CCC(c3c[nH]c4ncccc34)CC2)C1` [Compound 183, (2-hydroxyphenyl) 3-[4-(1H-pyrrolo[2,3-b]pyridin-3-yl)piperidin-1-yl]sulfonylaze-tidine-1-carboxylate], the figure is 100 to 1000 nM; as for `CCOC(=O)c1coc(N2CC(S(=O)(=O)N3CCC(c4ccncc4)CC3)C2)n1` [Compound 260, ethyl 2-[3-(4-pyridin-4-ylpiperidin-1-yl)sulfonylaze-tidin-1-yl]-1,3-oxazole-4-carboxylate], 1000 to 10000 nM.
As to `O=C(N1CCCCC1)N1CC(S(=O)(=O)N2CCC(c3c[nH]c4ncccc34)CC2)C1` [Compound 86, piperidin-l-yl-[3-[4-(1H-pyrrolo[2,3-b]pyridin-3-yl)piperidin-1-yl]sulfonylaze-tidin-1-yl]methanone], the concentration for half-maximal inhibition (IC50) was in the range of 100 to 1000 nM.
Take `CN(C(=O)[C@H]1C[C@H](S(=O)(=O)N2CCC(c3c[nH]c4ncccc34)CC2)C1)C(C)(C)C` [Compound 290, trans-N-tert-butyl-N-methyl-3-[[4-(1H-pyrrolo[2,3-b]pyridin-3-yl)-1-piperidyl]sulfonyl]cyclobutanecarboxamide]: the half-inhibitory concentration (IC50) lay within 100 to 1000 nM.
Take `O=C(Nc1c(F)cccc1F)N1CC(S(=O)(=O)N2CCC(c3c[nH]c4ncccc34)CC2)C1` [Compound 390, N-(2,6-difluorophenyl)-3-[4-(1H-pyrrolo[2,3-b]pyridin-3-yl)piperidin-1-yl]sulfonylaze-tidine-1-carboxamide]: the half-inhibitory concentration (IC50) lay in the range of 10 to 100 nM.
Then `CC1(C)COCC(C)(C)N1C(=O)N1CC(S(=O)(=O)N2CCC(c3ccncc3)CC2)C1` [Compound 32, [3-(4-pyridin-4-ylpiperidin-1-yl)sulfonylaze-tidin-1-yl]-(3,3,5,5-tetramethylmor-pholin-4-yl)methanone], with 100 to 1000 nM; and `CCN(C(=O)N1CC(S(=O)(=O)N2CCC(c3c[nH]c4ncccc34)CC2)C1)C(C)C` [Compound 206, N-ethyl-N-propan-2-yl-3-[4-(1H-pyrrolo[2,3-b]pyridin-3-yl)piperidin-1-yl]sulfonylaze-tidine-1-carboxamide], with 10 to 100 nM.
For `CN(C)S(=O)(=O)n1cc(C2CCN(S(=O)(=O)C3CN(C(=O)OC(C)(C)C)C3)CC2)c2cccnc21` [Compound 92, tert-butyl 3-[4-[1-(dimethylsulfamoyl)pyrrolo[2,3-b]pyridin-3-yl]piperidin-1-yl]sulfonylaze-tidine-1-carboxylate], the 50% inhibitory concentration (IC50) lay within 1000 to 10000 nM.
For `CC(C)C(C(C)C)N1CC(S(=O)(=O)N2CCC(c3c[nH]c4ncccc34)CC2)C1` [Compound 148, 3-[1-[1-(2,4-dimethylpentan-3-yl)azetidin-3-yl]sulfonylpiper-idin-4-yl]-1H-pyrrolo[2,3-b]pyridine], the IC50 is 1000 to 10000 nM.
`CC(C)(C)C(=O)N1CC(S(=O)(=O)N2CCC(c3c[nH]c4ncccc34)CC2)C1` [Compound 73, 2,2-dimethyl-1-[3-[4-(1H-pyrrolo[2,3-b]pyridin-3-yl)piperidin-1-yl]sulfonylaze-tidin-1-yl]propan-1-one]: the concentration for half-maximal inhibition (IC50) lay in the range of 100 to 1000 nM.
As for `O=S(=O)(C1CN(c2ncccc2CO)C1)N1CCC(c2c[nH]c3ncccc23)CC1` [Compound 182, [2-[3-[4-(1H-pyrrolo[2,3-b]pyridin-3-yl)piperidin-1-yl]sulfonylaze-tidin-1-yl]pyridin-3-yl]methanol], the IC50 lay in the range of 10 to 100 nM.
Regarding `Cc1ccc(S(=O)(=O)n2cc(C3CCN(S(=O)(=O)C4CN(C(=O)OC(C)(C)C)C4)CC3)c3nccnc32)cc1` [Compound 129, tert-butyl 3-[4-[5-(4-methylphenyl)-sulfonylpyrrolo[2,3-b]pyrazin-7-yl]piperidin-1-yl]sulfonylaze-tidine-1-carboxylate], the half-maximal inhibitory concentration (IC50) fell in the range of 1000 to 10000 nM.
Regarding `Cc1ccnc(N2CC(S(=O)(=O)N3CCC(c4c[nH]c5ncccc45)CC3)C2)c1` [Compound 257, 3-[1-[1-(4-methylpyridin-2-yl)azetidin-3-yl]sulfonylpiper-idin-4-yl]-1H-pyrrolo[2,3-b]pyridine], the half-inhibitory concentration (IC50) was 10 to 100 nM.
As to `O=C(NCc1ccco1)N1CC(S(=O)(=O)N2CCC(c3c[nH]c4ncccc34)CC2)C1` [Compound 99, N-(furan-2-ylmethyl)-3-[4-(1H-pyrrolo[2,3-b]pyridin-3-yl)piperidin-1-yl]sulfonylaze-tidine-1-carboxamide], the 50% inhibitory concentration (IC50) lay in the range of 100 to 1000 nM.
In the case of `Cc1noc(C)c1COC(=O)N1CC(S(=O)(=O)N2CCC(c3c[nH]c4ncccc34)CC2)C1` [Compound 62, (3,5-Dimethylisoxazol-4-yl)methyl 3-[[4-(1H-pyrrolo[2,3-b]pyridin-3-yl)-1-piperidyl]sulfonyl]azetidine-1-carboxylate], the IC50 fell in the range of 10 to 100 nM.
Regarding `CC(C)(C)OC(=O)N1CC(S(=O)(=O)N2CCC(c3c[nH]c4ncccc34)CC2)C1` [Compound 110, tert-butyl 3-[4-(1H-pyrrolo[2,3-b]pyridin-3-yl)piperidin-1-yl]sulfonylaze-tidine-1-carboxylate], the 50% inhibitory concentration (IC50) is 10 to 100 nM.
With `Cc1ccc(S(=O)(=O)n2ccc3c(C4=CCN(S(=O)(=O)C5CCN(C(=O)OC(C)(C)C)CC5)CC4)ccnc32)cc1` [Compound 237, tert-butyl 4-[[4-[1-(4-methylphenyl)sulfonylpyrrolo [2,3-b]pyridin-dihydro-2H-pyridin-1-yl]sulfonyl]piperidine-1-carboxylate], the IC50 lay within 100 to 1000 nM.
Then `O=C(Nc1cccc(F)c1)N1CC(S(=O)(=O)N2CCC(c3c[nH]c4ncccc34)CC2)C1` [Compound 389, N-(3-fluorophenyl)-3-[4-(1H-pyrrolo[2,3-b]pyridin-3-yl)piperidin-1-yl]sulfonylaze-tidine-1-carboxamide], with 10 to 100 nM.
